Results as given in US9750759B2, “Antitumoral compounds” (priority 2008, dated 2017).
Read-outs that look alike come from different tables or passages of the source.

Tests used:
Assay in all cases: cells
Type in all cases: cell-based
A549 = conditions: Homo sapiens; for GI50: concentration that produces 50% growth inhibition; for IC (total growth inhibition): total growth inhibition (cytostatic effect), read-out: TGI
Text: (§1) The aim of this assay is to evaluate the in vitro cytostatic (ability to delay or arrest tumor cell growth) or cytotoxic (ability to kill tumor cells) activity of the samples being tested.
(§2) A colorimetric type of assay, using sulforhodamine B (SRB) reaction has been adapted for a quantitative measurement of cell growth and viability (following the technique described by Skehan P et al. J. Natl. Cancer Inst. 1990, 82, 1107-1112).
(§3) This form of assay employs SBS-standard 96-well cell culture microplates (Faircloth et al. Methods in cell science, 1988, 11(4), 201-205; Mosmann et al, Journal of Immunological. Methods, 1983, 65(1-2), 55-63). All the cell lines used in this study, derived from different types of human cancer, were obtained from the American Type Culture Collection (ATCC).
(§4) Cells were maintained in Dulbecco's Modified Eagle Medium (DMEM) supplemented with 10% Fetal Bovine Serum (FBS), 2 mM L-glutamine, 100 U/mL penicillin and 100 U/mL streptomycin at 37° C., 5% CO2 and 98% humidity. For the experiments, cells were harvested from subconfluent cultures using trypsinization and resuspended in fresh medium before counting and plating.
(§5) Cells were seeded in 96 well microtiter plates at 5×10^3 cells per well in aliquots of 150 μL, and allowed to attach to the plate surface for 18 hours in drug free medium. One control (untreated) plate of each cell line was fixed (as described below) and used for time zero reference value. Afterwards, test samples were added to the cultures in ten serial dilutions, in aliquots of 50 μL, ranging from 10 to 0.00262 μg/mL. After 48 hours exposure, the antitumor effect was estimated by the SRB method: Briefly, cells were washed twice with PBS, fixed for 15 min in 1% glutaraldehyde solution, rinsed twice in PBS, and stained in 0.4% SRB solution for 30 min at room temperature. Cells were then rinsed several times with 1% acetic acid solution and air-dried. SRB was then extracted in 10 mM trizma base solution and the absorbance measured in an automated spectrophotometric plate reader at 490 nm. Cell survival was expressed as percentage of control cell growth. The final effect of the sample being tested was estimated by applying the NCI algorithm (Boyd M R and Paull K D. Drug Dev. Res. 1995, 34, 91-104).
(§6) Using the mean±SD of triplicate cultures, a dose-response curve was automatically generated using nonlinear regression analysis. Three reference parameters were calculated (NCI algorithm) by automatic interpolation: GI50=concentration that produces 50% growth inhibition; TGI=total growth inhibition (cytostatic effect) and LC50=concentration that produces 50% net cell killing (cytotoxic effect).

HT29 = conditions: Homo sapiens; for GI50: concentration that produces 50% growth inhibition; for IC (total growth inhibition): total growth inhibition (cytostatic effect), read-out: TGI
Text: as §1, §2, §3, §4, §5, §6

MDA-MB-231 = conditions: Homo sapiens; for IC (total growth inhibition): read-out: TGI; for GI50: concentration that produces 50% growth inhibition
Text: as §1, §2, §3, §4, §5, §6

[1] = MDA-MB-231, 48 h, read-out: LC50
[2] = MDA-MB-231, 48 hours exposure, total growth inhibition (cytostatic effect)

| Compound | CC50 (A549; A549, 48 h, read-out: LC50) [nM] | GI50 (A549; A549, 48 hours exposure) [nM] | IC (total growth inhibition) (A549; A549, 48 hours exposure) [µM] | CC50 (HT29; HT-29, 48 h, read-out: LC50) [nM] | GI50 (HT29; HT-29, HT29, 48 hours exposure) [nM] | IC (total growth inhibition) (HT29; HT-29, HT29, 48 hours exposure) [µM] | CC50 (MDA-MB-231; [1]) [nM] | IC (total growth inhibition) (MDA-MB-231; MDA-MB-231, 48 h) [µM] | GI50 (MDA-MB-231; MDA-MB-231, 48 hours exposure) [nM] | IC (total growth inhibition) (MDA-MB-231; [2]) [µM] | CC50 (A549; A549, 48 hours exposure, concentration that produces 50% net cell killing, read-out: LC50 (the source's name)) [nM] | CC50 (HT29; HT-29, HT29, 48 hours exposure, concentration that produces 50% net cell killing, read-out: LC50 (the source's name)) [nM] | CC50 (MDA-MB-231; MDA-MB-231, 48 hours exposure, concentration that produces 50% net cell killing, read-out: LC50 (the source's name)) [nM] |
| --- | --- | --- | --- | --- | --- | --- | --- | --- | --- | --- | --- | --- | --- |
| C/C=C\C[C@@H](C/C=C\NC(=O)[C@@H](NC(=O)\C=C/C=C\C(C)=C\[C@H](C)[C@@H]1CC=C(OC)[C@H](O)O1)C(C)(C)C)OC(N)=O [Compound 89] | 0.819 | 0.138 | 0.000279 | 0.227 | 0.0802 | 0.000127 | > 1.74 | > 0.00174 | 0.296 | – | – | – | – |
| C/C=C\C[C@H](O)C/C=C\NC(=O)[C@@H](NC(=O)/C=C\C#C/C(C)=C/[C@H](C)[C@@H]1CC=C(OC)C(=O)O1)C(C)(C)C [Compound 96] | > 19000 | 7780 | > 19 | > 19000 | 5890 | 8.92 | > 19000 | – | 13100 | > 19 | – | – | – |
| COC1=CC[C@@H]([C@@H](C)/C=C(C)/C=C\C#CCCC(=O)N[C@H](C(=O)N/C=C\C[C@H](C/C=C(\C)Cl)O[Si](c2ccccc2)(c2ccccc2)C(C)(C)C)C(C)(C)C)OC1=O [Compound 98] | – | 111 | 0.495 | – | 53.2 | 0.0701 | – | – | 104 | 0.181 | > 12100 | 169 | > 12100 |
| COC1=CC[C@@H]([C@@H](C)/C=C(C)/C=C\C#CCCC(=O)N[C@H](C(=O)N/C=C\C[C@@H](O)C/C=C(\C)Cl)C(C)(C)C)OC1=O [Compound 99] | 12200 | 3060 | 6.62 | 5770 | 900 | 2.21 | 13200 | – | 2720 | 6.11 | – | – | – |
| COC1=CC[C@@H]([C@@H](C)/C=C(C)/C=C\C#CCCC(=O)N[C@H](C(=O)N/C=C\C[C@H](C/C=C(\C)Cl)OC(N)=O)C(C)(C)C)OC1=O [Compound 100] | > 15800 | 395 | 2.21 | 7590 | 53.8 | 0.301 | > 15800 | > 15.8 | 348 | – | – | – | – |
